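Five compound concentrations were applied to cells in 96-well plates for 48 hours; endpoints were derived by simple linear interpolation of the resulting dose-response curve. TGI marks complete inhibition of growth.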
Columns and labels:
Assay in all cases: NCI anticancer screen, dose series, 48 h
[1] = tested on: HT29 colon
[2] = tested on: MALME-3M melanoma
[3] = tested on: NCI-H522 lung
[4] = tested on: EKVX NSCLC
[5] = tested on: HL-60(TB) leukemia
[6] = tested on: SF-539 CNS
[7] = tested on: SK-MEL-28 melanoma
[8] = tested on: SF-295 CNS
[9] = tested on: SK-MEL-5 melanoma
[10] = tested on: SK-OV-3 ovarian
[11] = tested on: HOP-62 NSCLC
[12] = tested on: MOLT-4 leukemia
[13] = tested on: IGROV1 ovarian
[14] = tested on: RPMI-8226 leukemia
[15] = tested on: A549 NSCLC
[16] = tested on: SN12C renal
[17] = tested on: U251 CNS
[18] = tested on: SR leukemia

| SMILES | TGI [1] | TGI [2] | TGI [3] | TGI [4] | TGI [5] | TGI [6] | TGI [7] | TGI [8] | TGI [9] | TGI [10] | TGI [11] | TGI [12] | TGI [13] | TGI [14] | TGI [15] | TGI [16] | TGI [17] | TGI [18] |
| --- | --- | --- | --- | --- | --- | --- | --- | --- | --- | --- | --- | --- | --- | --- | --- | --- | --- | --- |
| CNc1nc(OC)c2c(n1)[n+](C)cn2C | > 100 µM | > 100 µM | > 100 µM | > 100 µM | > 100 µM | > 100 µM | > 100 µM | > 100 µM | > 100 µM | > 100 µM | > 100 µM | > 100 µM | > 100 µM | > 100 µM | > 100 µM | > 100 µM | > 100 µM |  |
| CCCCCNC(=O)OC1CCn2c1nc1c2C(=O)C(C)=C(N2CC2)C1=O (stereo not given) | 2.77 µM | 4.27 µM | 3.4 µM |  | > 100 µM | 5.33 µM | 2.78 µM | 2.69 µM | 1.73 µM |  |  | 43.8 µM | 3.43 µM | > 100 µM | 2.57 µM | 3.27 µM | 4.7 µM | > 100 µM |
| COc1ccc(OC)c2c(Nc3ccc(S(=O)(=O)O)c4cc(S(=O)(=O)O)cc(S(=O)(=O)O)c34)cc(C)nc12 | > 100 µM | > 100 µM | > 100 µM | > 100 µM | > 100 µM | > 100 µM | > 100 µM | > 100 µM | > 100 µM | > 100 µM | > 100 µM | > 100 µM | > 100 µM | > 100 µM | > 100 µM | > 100 µM | > 100 µM |  |
| CO/C(N)=C(\C#N)N=Cc1cccs1 | > 100 µM | > 100 µM | 79.6 µM | > 100 µM | 65.4 µM | > 100 µM | > 100 µM | > 100 µM | > 100 µM | > 100 µM | > 100 µM | > 100 µM | > 100 µM |  | > 100 µM | > 100 µM | > 100 µM |  |
| COC(=O)C1CCC(=S)N1C(C)=O (stereo not given) | > 100 µM | > 100 µM | > 100 µM | > 100 µM |  |  | > 100 µM | > 100 µM | > 100 µM | > 100 µM | > 100 µM | > 100 µM | > 100 µM | > 100 µM | > 100 µM |  | > 100 µM |  |
| CCOC(=O)C1(NC(=O)OC(C)(C)C)CCc2[nH]oc(=O)c2C1 (stereo not given) | > 100 µM | > 100 µM | > 100 µM | > 100 µM | > 100 µM | > 100 µM | > 100 µM | > 100 µM | > 100 µM | > 100 µM | > 100 µM | > 100 µM | > 100 µM | > 100 µM | > 100 µM | > 100 µM | > 100 µM |  |
| Nc1nc(N)c2ncn(Cc3ccccc3)c2n1 | > 100 µM | > 100 µM | > 100 µM | > 100 µM |  | > 100 µM | > 100 µM | > 100 µM | > 100 µM | > 100 µM | > 100 µM | > 100 µM | > 100 µM | > 100 µM | > 100 µM | > 100 µM | > 100 µM |  |
| Cc1nnc(N)s/c1=N/O | > 100 µM | > 100 µM | > 100 µM | > 100 µM | > 100 µM | > 100 µM | > 100 µM | > 100 µM | > 100 µM | > 100 µM | > 100 µM | > 100 µM | > 100 µM | > 100 µM | > 100 µM | > 100 µM | > 100 µM |  |
| COc1ccc2c(C=O)c3n(c(=O)c2c1OC)CCc1cc2c(cc1-3)OCO2 | > 100 µM | > 100 µM | > 100 µM | > 100 µM | > 100 µM | > 100 µM | > 100 µM | > 100 µM | > 100 µM | > 100 µM | > 100 µM | > 100 µM | > 100 µM | 30.5 µM | > 100 µM | > 100 µM | > 100 µM |  |
| Oc1[nH]c2ccccc2c1N=Nc1nc(-c2ccccc2)cs1 | > 100 µM |  |  | 76.7 µM |  | 28.9 µM | > 100 µM | 63.1 µM | > 100 µM | > 100 µM | 66.4 µM | > 100 µM | > 100 µM |  | > 100 µM | > 100 µM | > 100 µM |  |
| FC(F)(Sc1nc2ccccc2[nH]1)c1nc2ccccc2o1 | > 100 µM | > 100 µM | 31.8 µM |  |  | > 100 µM | > 100 µM | > 100 µM | > 100 µM | > 100 µM | > 100 µM | > 100 µM | > 100 µM | > 100 µM | > 100 µM | > 100 µM | > 100 µM | > 100 µM |
